# Test results from patent US10975069B2, “Sigma-2 receptor ligand drug conjugates as antitumor compounds, methods of synthesis and uses thereof” (priority 2014, dated 2021).
# “And” between values parts separate entries of the source, which are not always exact repeats. Equal entries are not always repeated.
# Key:
# [1] = Toxicity study (necropsy, CBC, clinical chemistry) in tumor bearing mice; type: in vivo, C57BL/6 mice
# Experimental: Six adult female mice were submitted to necropsy. The strain designation of the mice was C57BL/6. […]
# Animal studies were performed according to the animal studies protocol approved by Washington University Institutional Animal Care Facility. In vivo studies with mice were performed to compare the effects of SW V-49s, SV119. Erastin, a combination of SV119 with Erastin, and vehicle. […] C57BL/6 mice (6 weeks old. National Cancer Institute Laboratories) were injected in the right flank with 200 μL single cell suspension of KCKO cells in RPMI medium (25×10^4/10^5 cells per mouse). Mice were randomized into four groups (n=15). Treatment was started when the mean tumor diameter was ^˜5 mm. […] Erastin, equimolar mix of SV119 and Erastin. Tumors were measured every other day with a digital caliper. Several mice from different treatment groups were sent to the Division of Comparative Medicine in our institution for pathologic evaluation. Blood was collected for complete blood count (CBC) and biochemical analysis (AST, ALT, BUN, total bilirubin, and Cr). Organs were examined grossly and histologically.
# [2] = system: KCKO mouse pancreatic tumors; assay: Syngeneic subcutaneous KCKO pancreatic tumor model; type: in vivo, C57BL/6 mice
# Description: FIG. 7 illustrates changes in mean tumor volume (in mm^3) following administration to interval of C57BL/6 mice with established, syngeneic, subcutaneous KCKO mouse pancreatic tumors over a period of 10 days for SW V-49s. Erastin, SV119, a mixture of Erastin and SV119, and a vehicle control. […] Note in FIG. 7 the decrease in tumor volume from approx. 40 mm^3 to approx. 20 mm^3 in SW V 49s-treated mice, compared to an increase from approx. 40 mm^3 to approx. 140 mm^3 for other treatments.
# In these experiments, in a survival study of the mice reported in Example 9, the group which received SW V-49s survived at 100% (FIG. 8). In all other groups, the mean survival clustered at around 18 days.
# Animal studies were performed according to the animal studies protocol approved by Washington University Institutional Animal Care Facility. In vivo studies with mice were performed to compare the effects of SW V-49s, SV119. Erastin, a combination of SV119 with Erastin, and vehicle. The vehicle used in the in vivo studies is a mixture of 25% cremophor and 75% H2O. C57BL/6 mice (6 weeks old. National Cancer Institute Laboratories) were injected in the right flank with 200 μL single cell suspension of KCKO cells in RPMI medium (25×10^4/10^5 cells per mouse). Mice were randomized into four groups (n=15). Treatment was started when the mean tumor diameter was ^˜5 mm. Mice received daily intra peritoneal injections with 375 nmoles in 100 μL/dose of SW V-49s and vehicle for 10 days SV119. Erastin, equimolar mix of SV119 and Erastin. Tumors were measured every other day with a digital caliper. Several mice from different treatment groups were sent to the Division of Comparative Medicine in our institution for pathologic evaluation. Blood was collected for complete blood count (CBC) and biochemical analysis (AST, ALT, BUN, total bilirubin, and Cr). Organs were examined grossly and histologically.
# [3] = system: SYO-1 Synovial sarcoma (SS) xenografts; assay: SYO-1 synovial sarcoma xenograft; type: in vivo, athymic nude mice; conditions: 300 nmoles for 14 days; FIG. 14E
# Experimental: SYO-1 Synovial sarcoma (SS) xenografts were also treated with 300 nmoles SW V-49. […] FIG. 14E depicts athymic nude mice xenograft of SS cell line SYO-1 treated with SW V-49 (300 nmoles) for 14 days and then followed, p<0.0001. SYO xenografts required a smaller dose of SW V-49 to achieve results similar to those achieved against PDAC.
# sigma-2 receptors = biological target: T1, sigma-2 receptors (Homo sapiens, UniProt Q5BJF2); assay: Competitive inhibition of internalization of fluorescent sigma-2 ligand SW 120 (flow cytometry); type: cell-based; conditions: increasing concentrations of SW V-49s (0, 10, 30, 50), 30 min 37 °C, then SW120; FIG. 3
# T1 construct: endogenous in cells
# T1 sequence (Q5BJF2 whole entry): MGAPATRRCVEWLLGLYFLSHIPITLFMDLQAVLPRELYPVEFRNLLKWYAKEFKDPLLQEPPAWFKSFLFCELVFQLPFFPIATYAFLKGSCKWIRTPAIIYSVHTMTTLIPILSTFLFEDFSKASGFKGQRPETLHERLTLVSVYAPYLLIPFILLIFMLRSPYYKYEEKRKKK
# Experimental: In these experiments, competitive binding assays of SW V-49s with the fluorescently labeled sigma-2 ligand SW 120 of structure
# AsPC-1 cells (5×10^5/well) were seeded into a 6 well plate for 24 hours before treatment. The cells were then incubated with […] of SW V-49s for 30 minutes at 37° C. Subsequently, 10 nM of fluorescently labeled sigma-2 ligand SW120 was added to the cell culture medium containing SW V-49s. After 30 minute of incubation at 37° C., cells were washed twice with phosphate buffered saline (PBS) and harvested with 0.05% trypsin EDTA (Life Technologies. Grand Island, N.Y.). Thereafter, the cells were centrifuged at 1000×g for 5 minutes and the pellets were washed twice with PBS. Internalization of SW 120 was determined by flow cytometer (FACSCalibur™, BD Biosciences, San Jose, Calif.).
# [4] = Table 2, individual mouse, listed as test drug
# [5] = Table 3 differential, individual mouse
# [6] = Table 3 differential, individual mouse, listed as test drug
# [7] = Table 4, individual mouse, listed as test drug
# [8] = Table 6, individual mouse (Drug 1-3), treated 10 days
# [9] = Table 7, individual mouse (Drug 1-3), treated 10 days
# [10] = daily i.p. 375 nmoles for 10 days
structure (smiles),measurement,setting,value
CCOc1ccccc1-n1c(CN2CCN(C(=O)COc3ccc(CNCCCCCCN4C5CCCC4CC(OC(=O)Nc4cc(C)ccc4OC)C5)cc3)CC2)nc2ccccc2c1=O.O=C(O)C(=O)O (stereo not drawn) [SW V-49s],WBC,"[1]; Table 2, individual mouse, daily i.p. over 2 weeks, listed as test drug",5.68 10^3/μL and 3.34 10^3/μL and 4.16 10^3/μL
same,Platelets,"[1]; Table 2, individual mouse, * mild platelet clumping, listed as test drug",749* 10^3/μL and 885 10^3/μL and 611 10^3/μL
same,HGB,[1]; [4],10.7 g/dL and 10.5 g/dL and 9.8 g/dL
same,MCH,[1]; [4],12.3 pg and 12.5 pg and 12.8 pg
same,MCHC,[1]; [4],27.2% and 24.8% and 26.0%
same,MCV,[1]; [4],45.3 u and 50.5 u and 49.2 u
same,PCV,[1]; [4],39.3% and 42.4% and 37.7%
same,RBC,[1]; [4],8.67 10^6/μL and 8.40 10^6/μL and 7.66 10^6/μL
same,Bands,[1]; [5],0%
same,Basophils,[1]; [5],0%
same,Eosinophils,[1]; [5],0%
same,Nrbe,[1]; [5],0%
same,Lymphocytes,[1]; [6],96% and 78% and 87%
same,Monocytes,[1]; [6],2% and 4% and 0%
same,Neutrophils,[1]; [6],2% and 18% and 13%
same,ALT,[1]; [7],138 u/L and 64 u/L and 63 u/L
same,AST,[1]; [7],167 u/L and 147 u/L and 55 u/L
same,BUN,[1]; [7],19 mg/dL and 22 mg/dL and 17 mg/dL
same,Creatinine,[1]; [7],0.22 mg/dL and 0.21 mg/dL and 0.24 mg/dL
same,Glucose,[1]; [7],178 mg/dL and 310 mg/dL and 180 mg/dL
same,Total Protein,[1]; [7],5.1 g/dL (2×) and 5.7 g/dL
same,HGB,[1]; [8],9.8 g/dL and 10.7 g/dL and 10.5 g/dL
same,MCH,[1]; [8],12.8 pg and 12.3 pg and 12.5 pg
same,MCHC,[1]; [8],26.0% and 27.2% and 24.8%
same,MCV,[1]; [8],49.2 u and 45.3 u and 50.5 u
same,PCV,[1]; [8],37.7% and 39.3% and 42.4%
same,Platelets,[1]; [8],611 10^3/μL and 749 10^3/μL and 885 10^3/μL
same,RBC,[1]; [8],7.66 10^6/μL and 8.67 10^6/μL and 8.40 10^6/μL
same,WBC,[1]; [8],4.16 10^3/μL and 5.68 10^3/μL and 3.34 10^3/μL
same,ALT,[1]; [9],138 μ/L and 64 μ/L and 63 μ/L
same,AST,[1]; [9],167 μ/L and 147 μ/L and 55 μ/L
same,BUN,[1]; [9],19 mg/dL and 22 mg/dL and 17 mg/dL
same,Creatinine,[1]; [9],0.22 mg/dL and 0.21 mg/dL and 0.24 mg/dL
same,Glucose,[1]; [9],178 mg/dL and 310 mg/dL and 180 mg/dL
same,Total Protein,[1]; [9],5.1 g/dL (2×) and 5.7 g/dL
same,mice behavior and drug-related deaths,[1]; [10],no gross abnormalities in the mice behavior (grooming) or any drug-related deaths were recorded
same,"organs analyses (brain, heart, lungs, alimentary tract, kidneys, liver and pancreas), adverse drug effects",[1]; [10],"did not reveal any obvious signs of adverse drug effects, except a mild peritonitis"
same,"serum labs (CBC, AST, ALT, BUN, total bilirubin, and Cr)",[1]; [10],unchanged
same,histopathologic finding in drug-treated versus control animals,[1]; daily i.p. over 2 weeks,minimal to moderate chronic peritonitis
same,Body weight,"[1]; pre-necropsy, individual mouse, daily i.p. over 2 weeks, listed as test drug",21 grams and 19 grams and 22 grams
same,differences in cell counts (CBC) versus vehicle,"[1]; treated for 10 days, Table 6",not statistically significant
same,change in tumor volume,"[2]; 10 days, p<0.05, FIG. 7",significant decrease in tumor volume
same,effect on mean tumor volume / tumor growth,"[2]; daily i.p. 375 nmoles for 10 days, FIG. 14A",capable of reducing the mean tumor volume
same,median survival,"[2]; daily i.p. 375 nmoles for 10 days, Kaplan-Meier, FIG. 14B",48 days
same,mean tumor volume at end of treatment,"[2]; over a period of 10 days, from approx. 40 mm^3 at start, FIG. 7",approx. 20 mm^3
same,survival,"[2]; survival study, FIG. 8",100%
same,tumor growth,[3],Growth inhibition
same,blocking of SW 120 internalization,sigma-2 receptors,efficient blocking of SW 120 internalization
